# How the values were obtained:
# [1] = molecular target: monomeric HIV-1 CA NL4.3 protein (Human immunodeficiency virus type 1 group M subtype B, UniProt P12493); test: SPR binding to monomeric HIV-1 CA; details: SPR, CA monomer
# [2] = test system: HIV-1 IIIB; test: Anti-HIV-1 activity in MT-4 cells; type: cell-based; details: HIV-1 IIIB, MT-4 cells
# [3] = Cytotoxicity in uninfected MT-4 cells; type: cell-based; details: human
# [4] = molecular target: hexameric HIV-1 CA NL4.3 protein (Human immunodeficiency virus type 1, UniProt P12493); test: SPR binding to disulfide-stabilized hexameric HIV-1 CA; details: CA hexamer
# [5] = test system: HIV-2 ROD; test: Anti-HIV-2 activity in MT-4 cells; type: cell-based
# [6] = in vitro; details: human, microsomes
# [7] = test system: HIV-1; details: read-out: EC50 antiviral activity; MT-4 cells; cited from earlier work
# [8] = Metabolic stability in human liver microsomes
SMILES,Residence Time Monomer [1] [min],SI IIIB (CC50/EC50) [2],CC50 [3] [µM],Residence Time Hexamer [4] [min],"SI ROD (CC50/EC50) ([5]; HIV-2 ROD, MT-4 cells)","EC50 ([5]; Human immunodeficiency virus 2, MT4, read-out: EC50 ROD) [µM]","CLint scaled at 1 h, 1 µM [6] [mL/min/kg]",EC50 [7] [µM],"remaining at 1 h, 1 µM [8] [%]"
"COc1ccc(N(C)C(=O)[C@H](Cc2ccccc2)NC(=O)Cc2c(C)[nH]c3ccccc23)cc1 [PF74, reference compound]",0.011,>367.65,> 294,0.463,>77.64,3.78 ± 0.38,1900,0.87,–
"C[C@]12CC[C@H]3[C@@H](CCC4=CC(=O)CC[C@@]43C)[C@@H]1CC[C@@H]2O [Testosterone, testosterone]",–,–,–,–,–,–,–,–,95.8

# Reference: publication PMC10790229 (Journal of medicinal chemistry, 2023)
